Measured values published in ChEMBL document CHEMBL1201862, “PubChem BioAssay data set” (2004).
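Assay format: 96-well plates, 48-hour exposure. At the GI50, growth is halved.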 Calls of active or inactive are those of the source. Cut-off read from the data, not from the text of the source: active = GI50 up to about 1.1 µM and inactive = higher.

Legend:
Assay in all cases: NCI anticancer screen, dose series, 48 h
LXFL 529 = system: LXFL 529
K562 = system: K562
HL-60 = system: HL-60
U-251 = system: U-251
SNB-75 = system: SNB-75
M14 = system: M14
CAKI-1 = system: CAKI-1
SNB-78 = system: SNB-78
SW-620 = system: SW-620
UO-31 = system: UO-31
SK-MEL-5 = system: SK-MEL-5
OVCAR-3 = system: OVCAR-3
HOP-62 = system: HOP-62
HOP-92 = system: HOP-92
XF498 = system: XF498
SK-OV-3 = system: SK-OV-3
KM12 = system: KM12
HCC 2998 = system: HCC 2998
COLO 205 = system: COLO 205
DLD-1 = system: DLD-1
786-0 = system: 786-0
IGROV-1 = system: IGROV-1
NCI-H522 = system: NCI-H522
OVCAR-5 = system: OVCAR-5
OVCAR-4 = system: OVCAR-4
EKVX = system: EKVX
SN12C = system: SN12C
DMS-114 = system: DMS-114
SF-295 = system: SF-295
HT-29 = system: HT-29
SNB-19 = system: SNB-19
A549 = system: A549
OVCAR-8 = system: OVCAR-8
M19-MEL = system: M19-MEL
NCI-H460 = system: NCI-H460
RXF 393 = system: RXF 393
CCRF-CEM = system: CCRF-CEM
LOX IMVI = system: LOX IMVI
SF-539 = system: SF-539
A498 = system: A498
HCT-116 = system: HCT-116
NCI-H226 = system: NCI-H226
RPMI-8226 = system: RPMI-8226
HOP-18 = system: HOP-18
NCI-H23 = system: NCI-H23
SK-MEL-28 = system: SK-MEL-28
DMS-273 = system: DMS-273
UACC-257 = system: UACC-257
SF-268 = system: SF-268
KM-20L2 = system: KM-20L2
ACHN = system: ACHN
Malme-3M = system: Malme-3M
UACC-62 = system: UACC-62
TK-10 = system: TK-10
SR = system: SR
SK-MEL-2 = system: SK-MEL-2
MOLT-4 = system: MOLT-4
HCT-15 = system: HCT-15

Question: With `O=C(Cc1c(C(=O)Nc2ccccc2)sc(C(=O)Nc2ccccc2)c1CC(=O)Nc1ccccc1)Nc1ccccc1` as the compound, how does the GI50 (LXFL 529) read?
Answer: > 100 µM (inactive)

Question: What about the GI50 (K562) of the same compound?
Answer: > 100 µM (inactive)

Question: What about the GI50 (HL-60) of the same compound?
Answer: > 100 µM (inactive)

Question: And the GI50 (U-251)?
Answer: > 100 µM (inactive)

Question: What about the GI50 (SNB-75) of the same compound?
Answer: > 100 µM (inactive)

Question: What about the GI50 (M14) of the same compound?
Answer: > 100 µM (inactive)

Question: What about the GI50 (CAKI-1) of the same compound?
Answer: > 100 µM (inactive)

Question: What about the GI50 (SNB-78) of the same compound?
Answer: > 100 µM (inactive)

Question: What about the GI50 (SW-620) of the same compound?
Answer: > 100 µM (inactive)

Question: What about the GI50 (UO-31) of the same compound?
Answer: > 100 µM (inactive)

Question: And the GI50 (SK-MEL-5)?
Answer: > 100 µM (inactive)

Question: And the GI50 (OVCAR-3)?
Answer: > 100 µM (inactive)

Question: And the GI50 (HOP-62)?
Answer: > 100 µM (inactive)

Question: And the GI50 (HOP-92)?
Answer: > 100 µM (inactive)

Question: And the GI50 (XF498)?
Answer: > 100 µM (inactive)

Question: And the GI50 (SK-OV-3)?
Answer: > 100 µM (inactive)

Question: What about the GI50 (KM12) of the same compound?
Answer: > 100 µM (inactive)

Question: And the GI50 (HCC 2998)?
Answer: > 100 µM (inactive)

Question: And the GI50 (COLO 205)?
Answer: > 100 µM (inactive)

Question: And the GI50 (DLD-1)?
Answer: > 100 µM (inactive)

Question: And the GI50 (786-0)?
Answer: > 100 µM (inactive)

Question: What about the GI50 (IGROV-1) of the same compound?
Answer: > 100 µM (inactive)

Question: What about the GI50 (NCI-H522) of the same compound?
Answer: > 100 µM (inactive)

Question: And the GI50 (OVCAR-5)?
Answer: > 100 µM (inactive)

Question: What about the GI50 (OVCAR-4) of the same compound?
Answer: > 100 µM (inactive)

Question: What about the GI50 (EKVX) of the same compound?
Answer: > 100 µM (inactive)

Question: What about the GI50 (SN12C) of the same compound?
Answer: > 100 µM (inactive)

Question: And the GI50 (DMS-114)?
Answer: > 100 µM (inactive)

Question: And the GI50 (SF-295)?
Answer: > 100 µM (inactive)

Question: What about the GI50 (HT-29) of the same compound?
Answer: > 100 µM (inactive)

Question: What about the GI50 (SNB-19) of the same compound?
Answer: > 100 µM (inactive)

Question: What about the GI50 (A549) of the same compound?
Answer: > 100 µM (inactive)

Question: And the GI50 (OVCAR-8)?
Answer: > 100 µM (inactive)

Question: And the GI50 (M19-MEL)?
Answer: > 100 µM (inactive)

Question: And the GI50 (NCI-H460)?
Answer: > 100 µM (inactive)

Question: And the GI50 (RXF 393)?
Answer: > 100 µM (inactive)

Question: And the GI50 (CCRF-CEM)?
Answer: > 100 µM (inactive)

Question: What about the GI50 (LOX IMVI) of the same compound?
Answer: > 100 µM (inactive)

Question: What about the GI50 (SF-539) of the same compound?
Answer: > 100 µM (inactive)

Question: And the GI50 (A498)?
Answer: > 100 µM (inactive)

Question: What about the GI50 (HCT-116) of the same compound?
Answer: > 100 µM (inactive)

Question: And the GI50 (NCI-H226)?
Answer: > 100 µM (inactive)

Question: And the GI50 (RPMI-8226)?
Answer: > 100 µM (inactive)

Question: And the GI50 (HOP-18)?
Answer: 68.9 µM (inactive)

Question: And the GI50 (NCI-H23)?
Answer: > 100 µM (inactive)

Question: And the GI50 (SK-MEL-28)?
Answer: 0.719 µM (active)

Question: What about the GI50 (DMS-273) of the same compound?
Answer: > 100 µM (inactive)

Question: And the GI50 (UACC-257)?
Answer: > 100 µM (inactive)

Question: And the GI50 (SF-268)?
Answer: 0.446 µM (active)

Question: And the GI50 (KM-20L2)?
Answer: > 100 µM (inactive)

Question: And the GI50 (ACHN)?
Answer: > 100 µM (inactive)

Question: What about the GI50 (Malme-3M) of the same compound?
Answer: > 100 µM (inactive)

Question: And the GI50 (UACC-62)?
Answer: > 100 µM (inactive)

Question: What about the GI50 (TK-10) of the same compound?
Answer: > 100 µM (inactive)

Question: `Nc1nc2c(N)cc(C(F)(F)F)cc2nc1-c1ccccc1` was tested. Which GI50 (LXFL 529) did it give?
Answer: 64.9 µM (inactive)

Question: And the GI50 (K562)?
Answer: > 100 µM (inactive)

Question: And the GI50 (HL-60)?
Answer: 1.17 µM (inactive)

Question: And the GI50 (U-251)?
Answer: > 100 µM (inactive)

Question: And the GI50 (SNB-75)?
Answer: 27.2 µM (inactive)

Question: What about the GI50 (M14) of the same compound?
Answer: > 100 µM (inactive)

Question: And the GI50 (CAKI-1)?
Answer: > 100 µM (inactive)

Question: And the GI50 (SR)?
Answer: > 100 µM (inactive)

Question: And the GI50 (SNB-78)?
Answer: > 100 µM (inactive)

Question: What about the GI50 (SW-620) of the same compound?
Answer: > 100 µM (inactive)

Question: What about the GI50 (UO-31) of the same compound?
Answer: > 100 µM (inactive)

Question: And the GI50 (SK-MEL-5)?
Answer: > 100 µM (inactive)

Question: And the GI50 (OVCAR-3)?
Answer: > 100 µM (inactive)

Question: And the GI50 (HOP-62)?
Answer: > 100 µM (inactive)

Question: What about the GI50 (SK-MEL-2) of the same compound?
Answer: > 100 µM (inactive)

Question: What about the GI50 (MOLT-4) of the same compound?
Answer: 38.4 µM (inactive)

Question: What about the GI50 (HOP-92) of the same compound?
Answer: > 100 µM (inactive)

Question: What about the GI50 (XF498) of the same compound?
Answer: 50.2 µM (inactive)

Question: What about the GI50 (SK-OV-3) of the same compound?
Answer: > 100 µM (inactive)

Question: What about the GI50 (KM12) of the same compound?
Answer: > 100 µM (inactive)

Question: What about the GI50 (HCC 2998) of the same compound?
Answer: > 100 µM (inactive)

Question: What about the GI50 (COLO 205) of the same compound?
Answer: > 100 µM (inactive)

Question: And the GI50 (DLD-1)?
Answer: > 100 µM (inactive)

Question: And the GI50 (786-0)?
Answer: > 100 µM (inactive)

Question: What about the GI50 (IGROV-1) of the same compound?
Answer: > 100 µM (inactive)

Question: And the GI50 (NCI-H522)?
Answer: 85.3 µM (inactive)

Question: What about the GI50 (OVCAR-5) of the same compound?
Answer: > 100 µM (inactive)

Question: What about the GI50 (OVCAR-4) of the same compound?
Answer: > 100 µM (inactive)

Question: And the GI50 (EKVX)?
Answer: 4 µM (inactive)

Question: What about the GI50 (SN12C) of the same compound?
Answer: > 100 µM (inactive)

Question: And the GI50 (DMS-114)?
Answer: 86.5 µM (inactive)

Question: What about the GI50 (SF-295) of the same compound?
Answer: > 100 µM (inactive)

Question: And the GI50 (SNB-19)?
Answer: > 100 µM (inactive)

Question: And the GI50 (A549)?
Answer: > 100 µM (inactive)

Question: What about the GI50 (OVCAR-8) of the same compound?
Answer: > 100 µM (inactive)

Question: What about the GI50 (M19-MEL) of the same compound?
Answer: > 100 µM (inactive)

Question: And the GI50 (NCI-H460)?
Answer: > 100 µM (inactive)

Question: What about the GI50 (RXF 393) of the same compound?
Answer: > 100 µM (inactive)

Question: What about the GI50 (CCRF-CEM) of the same compound?
Answer: > 100 µM (inactive)

Question: What about the GI50 (HCT-15) of the same compound?
Answer: > 100 µM

Question: And the GI50 (LOX IMVI)?
Answer: > 100 µM (inactive)

Question: And the GI50 (SF-539)?
Answer: > 100 µM (inactive)

Question: What about the GI50 (A498) of the same compound?
Answer: > 100 µM (inactive)

Question: What about the GI50 (HCT-116) of the same compound?
Answer: > 100 µM (inactive)

Question: What about the GI50 (NCI-H226) of the same compound?
Answer: > 100 µM (inactive)

Question: And the GI50 (HOP-18)?
Answer: > 100 µM (inactive)

Question: And the GI50 (NCI-H23)?
Answer: > 100 µM (inactive)

Question: And the GI50 (SK-MEL-28)?
Answer: > 100 µM (inactive)

Question: And the GI50 (DMS-273)?
Answer: > 100 µM (inactive)

Question: And the GI50 (UACC-257)?
Answer: > 100 µM (inactive)

Question: And the GI50 (SF-268)?
Answer: > 100 µM (inactive)

Question: What about the GI50 (KM-20L2) of the same compound?
Answer: > 100 µM (inactive)

Question: What about the GI50 (ACHN) of the same compound?
Answer: > 100 µM (inactive)

Question: What about the GI50 (Malme-3M) of the same compound?
Answer: > 100 µM (inactive)

Question: What about the GI50 (UACC-62) of the same compound?
Answer: > 100 µM (inactive)

Question: What about the GI50 (TK-10) of the same compound?
Answer: > 100 µM (inactive)
